Values of other authors, collected in publication PMC9558053, “Development of a novel high-throughput screen for the identification of new inhibitors of protein S-acylation” (The Journal of Biological Chemistry, 2022).

Tested on: zDHHC20
Design: method as in PMID 34467875, PMID 34309372
Details: ref [33], [39]; read-out: IC50 for inhibition of zDHHC20 activity in vitro; cited from earlier work

## C=CC(=O)N(CC#N)CCCCCCCCCCCCCC [N-cyanomethyl-N-myracrylamide]
  IC50: 1350 ± 260 nM
